Assay results published in US7229990B2, “Bicyclic heteroaromatic compounds” (N.V. Organon, priority 2000, dated 2007).
Like-named read-outs stand apart in the source and are kept apart here.

Target: T1, human LH receptor (Homo sapiens, UniProt P22888)
T1 construct: expressed in transfected cells; host or cells: Chinese Hamster Ovary (CHO) cells, stably transfected; cotransfected with a CRE-luciferase reporter
Assay: CHO-LH in vitro bioactivity (CRE-luciferase reporter, LH agonistic activity)
Format: cell-based
Protocol: LH agonistic activity of compounds was tested in Chinese Hamster Ovary (CHO) cells stably transfected with the human LH receptor and cotransfected with a cAMP responsive, element (CRE)/promotor directing the expression of a firefly luciferase reporter gene. Binding of ligand to the Gs-coupled LH receptor will result in an increase of cAMP, which in turn will induce an increased transactivation of the luciferase reporter construct. The luciferase signal was quantified using a luminescence counter. For test compounds, EC50 values (concentration of test compound causing half-maximal (50%) stimulation) were calculated. For that purpose the software program GraphPad PRISM, version 3.0 (GraphPad software Inc., San Diego) was used.

[1] = CHO cells stably transfected with the human LH receptor and cotransfected with CRE/promotor firefly luciferase reporter, luciferase signal, read-out: EC50 value (concentration of test compound causing half-maximal (50%) stimulation)

T1 sequence (P22888 27-699): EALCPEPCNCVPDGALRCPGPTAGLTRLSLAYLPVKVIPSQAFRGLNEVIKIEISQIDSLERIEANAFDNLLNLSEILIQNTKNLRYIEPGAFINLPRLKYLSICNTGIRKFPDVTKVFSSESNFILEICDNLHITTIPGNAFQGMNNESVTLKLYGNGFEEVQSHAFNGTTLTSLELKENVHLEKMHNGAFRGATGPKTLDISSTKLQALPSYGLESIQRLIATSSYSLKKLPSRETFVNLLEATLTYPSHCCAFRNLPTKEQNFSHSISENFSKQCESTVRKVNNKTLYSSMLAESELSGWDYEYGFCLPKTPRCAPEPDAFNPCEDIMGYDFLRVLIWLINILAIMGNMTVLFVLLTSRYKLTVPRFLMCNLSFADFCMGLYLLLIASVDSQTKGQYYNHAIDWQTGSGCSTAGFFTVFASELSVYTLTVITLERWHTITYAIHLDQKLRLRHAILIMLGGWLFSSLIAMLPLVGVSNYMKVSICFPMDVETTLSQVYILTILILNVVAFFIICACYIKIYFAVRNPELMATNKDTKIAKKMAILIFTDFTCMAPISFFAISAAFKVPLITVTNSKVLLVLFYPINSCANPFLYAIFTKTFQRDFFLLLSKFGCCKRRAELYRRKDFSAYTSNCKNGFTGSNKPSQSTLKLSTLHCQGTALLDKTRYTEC

Row | Compound | EC50 [1] [nM] | EC50 [nM]
1 | CSc1nc(-c2cccc(NC(=O)N3CCOCC3)c2)c2c(N)c(C(=O)NC(C)(C)C)sc2n1 [Example 21] | < 10 | –
2 | C=CCOC(=O)Nc1cccc(-c2nc(SC)nc3sc(C(=O)NC(C)(C)C)c(N)c23)c1 [Example 16, tert-Butyl 5-amino-2-methylthio-4-(3-(allyloxycarbonylamino)-phenyl)-thieno[2,3-d]pyrimidine-6-carboxamide] | < 10 | –
3 | COC(=O)Nc1cccc(-c2nc(SC)nc3sc(C(=O)NC(C)(C)C)c(N)c23)c1 [Example 15, tert-Butyl 5-amino-2-methylthio-4-(3-(methoxycarbonylamino)-phenyl)-thieno[2,3-]pyrimidine-6-carboxamide] | < 10 | –
4 | CCN(CC)C(=O)Oc1cccc(-c2nc(SC)nc3sc(C(=O)NC(C)(C)C)c(N)c23)c1 [Example 7] | – | < 10
5 | CSc1nc(-c2cccc(NC(=O)N3CC=CCC3)c2)c2c(N)c(C(=O)NC(C)(C)C)sc2n1 [Example 23, tert-Butyl 5-amino-2-methylthio-4-(3-(1,2,3,6-tetrahydropyridinocarbonylamino)-phenyl)-thieno[2,3-d]pyrimidine-6-carboxamide] | < 10 | –
6 | CN(C)C(=O)Nc1cccc(-c2nc(-c3ccccc3)nc3sc(C(=O)NC(C)(C)C)c(N)c23)c1 [Example 32, tert-Butyl 5-amino-2-phenyl-4-(3-((N,N-dimethylamino)-carbonylamino)-phenyl)-thieno[2,3-d]pyrimidine-6-carboxamide] | < 10 | –
7 | CCOC(=O)Nc1cccc(-c2nc(SC)nc3sc(C(=O)NC(C)(C)C)c(N)c23)c1 [Example 18, tert-Butyl 5-amino-2-methylthio-4-(3-(ethoxycarbonylamino)-phenyl)-thieno[2,3-d]pyrimidine-6-carboxamide] | < 10 | –
